Usually EC50 stands for the concentration needed to bring the measured effect to its halfway point. The term IC50 denotes the concentration at which inhibition is half-maximal. The low end stands for inhibition by little substance, the high end for a need for much substance.

74 compounds from PubChem BioAssay AID179 (DTP/NCI, 2004) can be followed below.

Calls of active or inactive are those of the source.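 Rule for the calls: active = compounds giving half or more protection of infected cells from virus-caused growth loss, again on retest; inactive = the rest.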 Where a SMILES comes first, the peptide text is derived from it. [ ]: non-standard residue; d: D form. The star is where a group is joined. ξ: configuration not given here. X19 = O=C(OCc1ccccc1)[C@H]1CCC[C@H]1N*; ξW = NC(Cc1c[nH]c2ccccc12)C(=O)O; ξF = NC(Cc1ccccc1)C(=O)O; Cbz = O=C(OCc1ccccc1)*; Boc = CC(C)(C)OC(=O)*; ξK = NCCCCC(N)C(=O)O; ξT = CC(O)C(N)C(=O)O; tBu = CC(C)(C)*

The assay has as its system CEM cells HIV-1 protection, formazan growth assay. Briefly: NCI AIDS Antiviral Assay. The settings on record: for IC50: measured here: growth of uninfected CEM cells. In a few lines: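 Soluble formazan readout of cell growth; CEM cells ± HIV-1; 5 drug concs. ≥50% protection → retest; ≥50% again = moderately active; reproducible 100% = confirmed active.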

Regarding `O=C(CCCCC(=O)OCC1COCO1)OCC1COCO1` (stereo not drawn), the EC50 was over 200 µM and the IC50 was over 200 µM. With `CCOC(=O)/C(=C/c1ccc(N(C)C)cc1)N(CC)CC`, the EC50 is over 46.8 µM and the IC50 is over 46.8 µM.

As for `C[C@]12CC=CC(=O)[C@@]1(C)CCC(=O)C2`, the outcome was inactive. For the compound `Clc1ccc(-c2cc3nc4ccccc4nc3o2)cc1`, the EC50 was over 100 µM and the IC50 is over 100 µM. In the case of `C=C(C)C(OC(C)=O)C(OC(C)=O)c1c(OC)ccc2ccc(=O)oc12` (stereo not drawn), the EC50 is over 50.1 µM and the IC50 is over 50.1 µM. Take `O=C1CC2(CC=CCC23OCCO3)CC(CI)O1` (stereo not drawn): the EC50 is over 200 µM and the IC50 is over 200 µM.

Regarding `CNC(=S)/C(C#N)=C(\N)N1CCN(C)CC1`, the EC50 is over 200 µM and the half-maximal inhibitory concentration (IC50) was over 200 µM.

Turning to `CCCCN(CCCC)CC1CC(C(C)(C)C)CCC1O` (stereo not drawn), the EC50 is over 200 µM and the IC50 is 19.5 µM. `COC(=O)c1c(COC(=O)NC(C)C)c2n(c1C)CS(=O)(=O)C2`: the EC50 is over 200 µM and the IC50 is over 200 µM. In the case of `COc1ccc2[nH]c3c4c(cc(-c5ccccc5)c3c2c1)C(=O)N(c1ccccc1)C4=O`, the EC50 is over 9.12 µM and the IC50 was over 9.12 µM. Take `Nc1cc2c(cc1-n1cccc1)oc1ccccc12`: the EC50 was over 200 µM and the IC50 worked out at 19.5 µM. With `CCCCN(CCCC)C(=N)OC`, the EC50 is over 200 µM and the IC50 is 70.8 µM.

For `Nc1nncc2[nH]cnc12`, the EC50 is over 200 µM and the IC50 is 10 µM. In the case of `C[N+]1(CCC(C(N)=O)(c2ccccc2)c2ccccc2)CCCC12CCCCC2` (stereo not drawn), the outcome was inactive. As to `O=C1NN=C(C2CCCCC2)C12CCCCC2`, the EC50 was over 214 µM and the IC50 came out at 67.6 µM. Regarding `CC[CH2][Pb]([CH2]CC)([CH2]CC)[NH]S(=O)(=O)c1ccc(C)cc1`, the EC50 is over 2 µM and the IC50 is 0.166 µM. On the same counts, the results for `C(=C\C(SCc1ccccc1)SCc1ccccc1)/c1ccccc1` are over 200 µM and over 200 µM. Consider `Cn1c2ccccc2c2ccc3c(c21)C(=O)C(c1ccccc1)=CC3=O`, for which the EC50 was over 40.7 µM and the IC50 amounted to 29.5 µM. In the case of `CC(C)(C)NC(=O)C12C3C4C1C1C2C3C41I` (stereo not drawn), the EC50 is over 100 µM and the IC50 was over 100 µM. As for `COc1cc2c(SCCN(C)C)nc3ccccc3c2c2ccccc12`, the outcome was inactive. For `O=c1c2ccccc2[nH]c2c(O)ccc(O)c12`, the result was inactive. Take `COC(=O)C1C2CC3C1C3C2C(=O)OC` (stereo not drawn): the EC50 is over 200 µM and the IC50 is over 200 µM. Regarding `Cc1cn(C2CC(O)C(CN(O)CCC3CC(n4cc(C)c(=O)[nH]c4=O)OC3CO)O2)c(=O)[nH]c1=O` (stereo not drawn), the EC50 is over 200 µM and the IC50 was over 200 µM. Take `CC(C)[Si]1(C(C)C)OCC2OC(n3ccc(=O)[nH]c3=O)C(O)(CO)C2O[Si](C(C)C)(C(C)C)O1` (stereo not drawn): the EC50 was over 200 µM and the IC50 is 20.9 µM.

For `O=C(N/C(=C\c1ccc(/C=C(\NC(=O)c2ccccc2)c2nc3cc([N+](=O)[O-])ccc3[nH]2)cc1)c1nc2cc([N+](=O)[O-])ccc2[nH]1)c1ccccc1`, the outcome was inactive. With `c1ccc(N2N=NC3C4CCC(C4)C32)cc1` (stereo not drawn), the EC50 was over 200 µM and the IC50 was over 200 µM. As to `CCCCCCCCC(=O)NCCN(CCN)C(=O)CCCCCCCC`, the EC50 was over 100 µM and the IC50 came out at 5.5 µM. Consider `CCOC(=O)CN=c1nc(SC)sc2c(C(=O)OCC)nc(Sc3ccccc3)n12`, for which the EC50 was over 60.3 µM and the IC50 amounted to 10.7 µM.

In the case of `Cc1cc(S(=O)(=O)Nc2n[nH]c(N)n2)c(S)cc1Cl`, the EC50 is over 200 µM and the IC50 is over 200 µM. For the compound `COC(=O)Cc1c(C2C(CC(=O)OC)c3ccccc3N2C2OC(CO)C(O)C(O)C2O)[nH]c2ccccc12` (stereo not drawn), the EC50 is 112 µM and the IC50 is 151 µM. Regarding `CN1CCn2c(Br)ccc2C1=O`, the EC50 was over 1100 µM and the IC50 was 64.6 µM. On the same counts, the results for `O=[N+]([O-])c1cccc2nccc(NCC(O)CO)c12` (stereo not drawn) are over 200 µM and 6.17 µM.

On to `CC#N.CC#N.COC(=O)[C@@H]1CN(C(C)=O)C(=O)[N-]1.COC(=O)[C@@H]1CN(C(C)=O)C(=O)[N-]1.COC(=O)[C@@H]1CN(C(C)=O)C(=O)[N-]1.COC(=O)[C@@H]1CN(C(C)=O)C(=O)[N-]1.[Rh+2].[Rh+2]`, for which the EC50 was over 200 µM and the IC50 was over 200 µM. `CCOC(=O)/C(=C\c1ccc(C)cc1)[Se]c1ccccc1`: the EC50 was over 5.75 µM and the IC50 is over 5.75 µM. For the compound `CCOc1ccc(NC(=O)C(=O)C(C(=O)c2ccc3ccccc3c2)C2OC(=O)c3ccccc32)cc1` (stereo not drawn), the EC50 was over 52.5 µM and the IC50 is 45.7 µM.

Turning to `C/C=C/C(=O)[C@@H](O)C(C)C`, the outcome was inactive. As for `N#CC(N=O)C(N)=O` (stereo not drawn), the EC50 was over 200 µM and the IC50 is over 200 µM. In the case of `O=C(CCCc1cccc2[nH]c3c(c12)CN(Cc1ccccc1)CC3)c1ccc(F)cc1`, the EC50 is over 200 µM and the IC50 came to 14.5 µM.

Regarding `O=C(O)c1ccccc1-c1c2ccc(=O)c(Cl)c-2oc2c(Cl)c(O)ccc12`, the EC50 came to 17.8 µM and the IC50 turned out to be 56.2 µM. For `CCCCNc1cc2oc(=O)cc(C)c2cc1N`, the EC50 is over 155 µM and the IC50 was found to be 44.7 µM. As for `Cc1ccc(S(=O)(=O)Nn2c(S)c(C#N)c(-c3ccc([N+](=O)[O-])cc3)c(C#N)c2=O)cc1`, the EC50 is over 200 µM and the IC50 came to 30.9 µM. Turning to `N#C/C(=C1\OC(=N)C(c2ccc(Cl)cc2Cl)C1=O)c1ccc(Cl)cc1Cl` (stereo not drawn), the result was inactive. For the compound `COC(=O)CC(=O)C=P(c1ccccc1)(c1ccccc1)c1ccccc1`, the EC50 was over 347 µM and the IC50 came out at 20.4 µM. Regarding `N#CC12C(=N)CCC1C1CC2C2C3C=CC(C3)C12` (stereo not drawn), the EC50 was over 200 µM and the IC50 was over 200 µM. In the case of `S=c1[nH]c2ccccc2[nH]c1=S`, the EC50 was over 200 µM and the IC50 was determined as 26.3 µM.

As for `Cc1ccc(S(=O)(=O)OCC23CCC(CC2)C2CC23)cc1` (stereo not drawn), the EC50 was over 100 µM and the IC50 is 70.8 µM. Regarding `O=c1n(/N=C/c2ccccc2)c(=O)n2n1C1C=CC2CC1`, the EC50 was over 200 µM and the IC50 was over 200 µM. Turning to `Cc1cccc2c1CCC21OC(=O)c2c1ccc1ccccc21` (stereo not drawn), the result was inactive.

Turning to `CC(C)(C)c1c(C(C)(C)C)c(=O)c1=O`, the EC50 is over 200 µM and the IC50 was over 200 µM.

Take `O=C1OC(=O)c2cnccc21`: the result was inactive. With `Cc1cc(C)nc(NC(=O)Nc2cc(Cl)ccc2C)c1`, the EC50 was over 200 µM and the IC50 is over 200 µM. Regarding `Cc1[nH]c2ccccc2c1-c1n[nH]c(=O)c2ccccc12`, the outcome was inactive. In the case of `CN(C(=O)c1ccccc1S)c1ccccc1`, the EC50 is over 200 µM and the IC50 amounted to 20.4 µM. The matching figures for `O=C(/C=C/c1ccccc1)NC(=S)NCc1ccco1`: over 200 µM and over 200 µM. In the case of `CN(C)P1(=O)NCC(C(C)(C)C)CO1` (stereo not drawn), the EC50 was over 562 µM and the IC50 is over 562 µM. For the compound `CCCCCCCCCCSC(=O)NC`, the result was inactive.

On to `C#CCOCC12C=CC(O1)C1C(=O)OCC12` (stereo not drawn), for which the EC50 is over 200 µM and the IC50 is over 200 µM. On to `COC(=O)c1ccc(C)cc1/C=C1\Cc2ccc(C)cc2C1=O`, for which the EC50 was over 200 µM and the IC50 was found to be 18.6 µM. In the case of `O=C1NC(=O)C2(c3ccccc3)CCN1C2=O` (stereo not drawn), the EC50 is over 200 µM and the IC50 was over 200 µM. Consider `CC(=O)C(C)C(=O)N1C(=O)N(C)C2(C)N(C)C(=O)NC12C` (stereo not drawn), for which the EC50 is over 200 µM and the IC50 is over 200 µM. Regarding `O=CC12CCCN1CCC2`, the EC50 is over 200 µM and the IC50 is over 200 µM. Turning to `CC(CCC(C)OS(=O)(=O)c1ccc(F)cc1)OS(=O)(=O)c1ccc(F)cc1` (stereo not drawn), the outcome was inactive. For `COc1ccc(C2OC(=O)c3cc[nH]c(=O)c32)cc1` (stereo not drawn), the EC50 was over 141 µM and the IC50 was over 141 µM. Turning to `CC(=O)OCSc1ncnc2c1ncn2CN1CCOCC1`, the EC50 was over 776 µM and the IC50 stood at 0.575 µM. Take `Cc1nc(-c2cccnc2)sc1C(=O)/C=C/c1cccc([N+](=O)[O-])c1`: the EC50 is over 74.1 µM and the IC50 was over 74.1 µM. Take `CC1(CO)CCCC/C1=N\Nc1cc([N+](=O)[O-])cc([N+](=O)[O-])c1` (stereo not drawn): the EC50 was over 501 µM and the IC50 turned out to be 19.1 µM.

Turning to `O=C(/C(=C\C(=O)c1cccs1)c1ccsc1)c1ccc(Br)cc1`, the result was inactive. The same measure, in the same setting: the result for `CC(C)(C)OC(=O)NC(Cc1ccc(OC(C)(C)C)cc1)C(=O)N[C@H]1CC[C@H](C(=O)O)C1` (stereo partly drawn) reads “inactive”.

Turning to `CCOC(=O)C1C(C)C2(C#N)C(=N)OC1(C)C2(C#N)C#N` (stereo not drawn), the EC50 is over 200 µM and the IC50 came out at 83.2 µM. Consider `O=c1c2c3c(sc2nc2n1N=CN(c1ccc(Cl)cc1)C2)CCCC3`, for which the EC50 is over 200 µM and the IC50 was 38 µM. In the case of `O=C(C(=O)c1ccc(Cc2ccc(C(=O)C(=O)c3ccccc3)cc2)cc1)c1ccccc1`, the EC50 is over 575 µM and the IC50 is over 575 µM.

With `CC(C)(O)[C@@H]1CCC(C)([C@H]2[C@@H](O)CC3(C)C4CC(OC5OC(CO)C(O)C(O)C5O)C5C(C)(C)[C@@H](OC6OCC(O)C(O)C6O)CC[C@@]56C[C@@]46CC[C@]23C)O1` (stereo partly drawn), the EC50 was over 120 µM and the IC50 was over 120 µM.

For `COc1ccc2c(c1)CCN1CCc3ccccc3CC21` (stereo not drawn), the EC50 is over 200 µM and the IC50 was 53.7 µM. Take `CC(OC(C)(C)C)C(NC(=O)C(CCCCNC(=O)OC(C)(C)C)NC(=O)C(Cc1c[nH]c2ccccc12)NC(=O)C(Cc1ccccc1)NC(=O)OCc1ccccc1)C(=O)NC(Cc1ccccc1)C(=O)N[C@@H]1CCC[C@@H]1C(=O)OCc1ccccc1` (stereo partly drawn) (Cbz-[ξF][ξW][ξK](Boc)[ξT](tBu)[ξF]-X19): the outcome was inactive.
